# Laboratory results as given in ChEMBL document CHEMBL1201862, “PubChem BioAssay data set” (2004).
#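 Where inhibition never reached the appropriate level, the endpoint shown equals the highest concentration tested. Otherwise, values were interpolated linearly from a five-concentration, 48-hour dose response in 96-well plates. GI50: concentration for 50% inhibition of growth.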 Activity calls are given as the source filed them. Cut-off read from the data, not from the text of the source: active = GI50 up to about 1.1 µM and inactive = higher.
# What was measured:
# Test in all cases: growth of human tumour cells (NCI), 48 h
# CCRF-CEM = test system: CCRF-CEM
# NCI-H460 = test system: NCI-H460
# DMS-114 = test system: DMS-114
# XF498 = test system: XF498
# 786-0 = test system: 786-0
# SF-539 = test system: SF-539
# NCI-H522 = test system: NCI-H522
# SK-MEL-5 = test system: SK-MEL-5
# HCT-15 = test system: HCT-15
# SF-295 = test system: SF-295
# SN12C = test system: SN12C
# RPMI-8226 = test system: RPMI-8226
# HOP-92 = test system: HOP-92
# HOP-18 = test system: HOP-18
# SNB-19 = test system: SNB-19
# HCC 2998 = test system: HCC 2998
# UO-31 = test system: UO-31
# HT-29 = test system: HT-29
# EKVX = test system: EKVX
# HL-60 = test system: HL-60
# M19-MEL = test system: M19-MEL
# SF-268 = test system: SF-268
# CAKI-1 = test system: CAKI-1
# OVCAR-8 = test system: OVCAR-8
# LXFL 529 = test system: LXFL 529
# IGROV-1 = test system: IGROV-1
# MOLT-4 = test system: MOLT-4
# HCT-116 = test system: HCT-116
# SK-MEL-28 = test system: SK-MEL-28
# OVCAR-5 = test system: OVCAR-5
# M14 = test system: M14
# DMS-273 = test system: DMS-273
# SW-620 = test system: SW-620
# UACC-62 = test system: UACC-62
# A498 = test system: A498
# HOP-62 = test system: HOP-62
# OVCAR-4 = test system: OVCAR-4
# KM12 = test system: KM12
# A549 = test system: A549
# K562 = test system: K562
# U-251 = test system: U-251
# LOX IMVI = test system: LOX IMVI
# KM-20L2 = test system: KM-20L2
# OVCAR-3 = test system: OVCAR-3
# SNB-78 = test system: SNB-78
# SK-MEL-2 = test system: SK-MEL-2
# UACC-257 = test system: UACC-257
# SK-OV-3 = test system: SK-OV-3
# NCI-H23 = test system: NCI-H23
# ACHN = test system: ACHN
# SNB-75 = test system: SNB-75
# COLO 205 = test system: COLO 205
# RXF 631 = test system: RXF 631
# TK-10 = test system: TK-10
# Malme-3M = test system: Malme-3M
# NCI-H226 = test system: NCI-H226
# DLD-1 = test system: DLD-1
# RXF 393 = test system: RXF 393
# SR = test system: SR
smiles,measurement,setting,value
Cc1cn2cc(-c3ccncc3)nc2s1,GI50,CCRF-CEM,> 52.7 µM (inactive)
same,GI50,NCI-H460,> 100 µM (inactive)
same,GI50,DMS-114,> 91.4 µM (inactive)
same,GI50,XF498,> 100 µM (inactive)
same,GI50,786-0,> 100 µM (inactive)
same,GI50,SF-539,> 100 µM (inactive)
same,GI50,NCI-H522,> 100 µM (inactive)
same,GI50,SK-MEL-5,> 100 µM (inactive)
same,GI50,HCT-15,98.6 µM
same,GI50,SF-295,> 100 µM (inactive)
same,GI50,SN12C,> 100 µM (inactive)
same,GI50,RPMI-8226,> 47.2 µM (inactive)
same,GI50,HOP-92,> 100 µM (inactive)
same,GI50,HOP-18,> 100 µM (inactive)
same,GI50,SNB-19,> 100 µM (inactive)
same,GI50,HCC 2998,> 100 µM (inactive)
same,GI50,UO-31,> 100 µM (inactive)
same,GI50,HT-29,> 100 µM (inactive)
same,GI50,EKVX,> 100 µM (inactive)
same,GI50,HL-60,> 19.8 µM (inactive)
same,GI50,M19-MEL,> 86.7 µM (inactive)
same,GI50,SF-268,> 100 µM (inactive)
same,GI50,CAKI-1,> 100 µM (inactive)
same,GI50,OVCAR-8,> 100 µM (inactive)
same,GI50,LXFL 529,> 100 µM (inactive)
same,GI50,IGROV-1,> 100 µM (inactive)
same,GI50,MOLT-4,> 100 µM (inactive)
same,GI50,HCT-116,> 83 µM (inactive)
same,GI50,SK-MEL-28,> 100 µM (inactive)
same,GI50,OVCAR-5,> 100 µM (inactive)
same,GI50,M14,> 100 µM (inactive)
same,GI50,DMS-273,> 100 µM (inactive)
same,GI50,SW-620,> 50 µM (inactive)
same,GI50,UACC-62,> 100 µM (inactive)
same,GI50,A498,> 100 µM (inactive)
same,GI50,HOP-62,> 100 µM (inactive)
same,GI50,OVCAR-4,> 82 µM (inactive)
same,GI50,KM12,> 100 µM (inactive)
same,GI50,A549,> 100 µM (inactive)
same,GI50,K562,> 51.8 µM (inactive)
same,GI50,U-251,> 100 µM (inactive)
same,GI50,LOX IMVI,> 49.8 µM (inactive)
same,GI50,KM-20L2,> 100 µM (inactive)
same,GI50,OVCAR-3,> 100 µM (inactive)
same,GI50,SNB-78,> 100 µM (inactive)
same,GI50,SK-MEL-2,> 100 µM (inactive)
same,GI50,UACC-257,> 100 µM (inactive)
same,GI50,SK-OV-3,> 100 µM (inactive)
same,GI50,NCI-H23,> 100 µM (inactive)
same,GI50,ACHN,> 100 µM (inactive)
same,GI50,SNB-75,> 100 µM (inactive)
same,GI50,COLO 205,> 71.8 µM (inactive)
same,GI50,RXF 631,> 100 µM (inactive)
same,GI50,TK-10,> 100 µM (inactive)
same,GI50,Malme-3M,> 100 µM (inactive)
same,GI50,NCI-H226,> 100 µM (inactive)
same,GI50,DLD-1,> 100 µM (inactive)
c1ccc(P(=Nc2ccccc2N=P(c2ccccc2)(c2ccccc2)c2ccccc2)(c2ccccc2)c2ccccc2)cc1,GI50,CCRF-CEM,1.3 µM (inactive)
same,GI50,NCI-H460,0.528 µM (active)
same,GI50,DMS-114,0.405 µM (active)
same,GI50,XF498,0.208 µM (active)
same,GI50,786-0,0.555 µM (active)
same,GI50,SF-539,1.16 µM (inactive)
same,GI50,NCI-H522,0.274 µM (active)
same,GI50,SK-MEL-5,0.401 µM (active)
same,GI50,SF-295,1.11 µM (active)
same,GI50,SN12C,0.293 µM (active)
same,GI50,RPMI-8226,1.74 µM (inactive)
same,GI50,HOP-92,0.178 µM (active)
same,GI50,HOP-18,0.172 µM (active)
same,GI50,SNB-19,0.333 µM (active)
same,GI50,HCC 2998,0.942 µM (active)
same,GI50,UO-31,2.31 µM (inactive)
same,GI50,HT-29,1.3 µM (inactive)
same,GI50,EKVX,1.21 µM (inactive)
same,GI50,HL-60,1.08 µM (active)
same,GI50,M19-MEL,0.818 µM (active)
same,GI50,SF-268,> 100 µM (inactive)
same,GI50,CAKI-1,0.444 µM (active)
same,GI50,OVCAR-8,0.364 µM (active)
same,GI50,LXFL 529,0.337 µM (active)
same,GI50,IGROV-1,0.498 µM (active)
same,GI50,HCT-116,0.593 µM (active)
same,GI50,SK-MEL-28,> 100 µM (inactive)
same,GI50,OVCAR-5,1.53 µM (inactive)
same,GI50,M14,1.44 µM (inactive)
same,GI50,DMS-273,0.309 µM (active)
same,GI50,SW-620,3.07 µM (inactive)
same,GI50,UACC-62,0.562 µM (active)
same,GI50,A498,0.986 µM (active)
same,GI50,HOP-62,0.558 µM (active)
same,GI50,OVCAR-4,1.25 µM (inactive)
same,GI50,KM12,0.834 µM (active)
same,GI50,A549,0.305 µM (active)
same,GI50,K562,1.09 µM (active)
same,GI50,U-251,0.326 µM (active)
same,GI50,LOX IMVI,0.612 µM (active)
same,GI50,KM-20L2,1.38 µM (inactive)
same,GI50,OVCAR-3,0.164 µM (active)
same,GI50,SNB-78,0.489 µM (active)
same,GI50,UACC-257,0.386 µM (active)
same,GI50,SK-OV-3,0.327 µM (active)
same,GI50,NCI-H23,0.337 µM (active)
same,GI50,ACHN,0.869 µM (active)
same,GI50,SNB-75,0.371 µM (active)
same,GI50,COLO 205,1.65 µM (inactive)
same,GI50,RXF 631,1.34 µM (inactive)
same,GI50,RXF 393,1.05 µM (active)
same,GI50,TK-10,0.54 µM (active)
same,GI50,Malme-3M,0.256 µM (active)
same,GI50,NCI-H226,0.337 µM (active)
same,GI50,DLD-1,1.47 µM (inactive)
C=C1C(=O)C23C(O)C1CCC2C12CO[C@]3(O)[C@@H](O)C1C(C)(C)CCC2O (stereo not given in full),GI50,CCRF-CEM,1.63 µM (inactive)
same,GI50,NCI-H460,11.2 µM (inactive)
same,GI50,DMS-114,5.82 µM (inactive)
same,GI50,XF498,2.44 µM (inactive)
same,GI50,786-0,12.2 µM (inactive)
same,GI50,SF-539,14.7 µM (inactive)
same,GI50,NCI-H522,0.798 µM (active)
same,GI50,SK-MEL-5,22.4 µM (inactive)
same,GI50,HCT-15,11.9 µM
same,GI50,SF-295,16.7 µM (inactive)
same,GI50,SN12C,14.3 µM (inactive)
same,GI50,RPMI-8226,3.75 µM (inactive)
same,GI50,HOP-92,3.49 µM (inactive)
same,GI50,HOP-18,11.7 µM (inactive)
same,GI50,SNB-19,14.8 µM (inactive)
same,GI50,HCC 2998,16.1 µM (inactive)
same,GI50,UO-31,17.1 µM (inactive)
same,GI50,HT-29,13.5 µM (inactive)
same,GI50,EKVX,15 µM (inactive)
same,GI50,HL-60,5.01 µM (inactive)
same,GI50,M19-MEL,10.7 µM (inactive)
same,GI50,SF-268,13.9 µM (inactive)
same,GI50,CAKI-1,15.2 µM (inactive)
same,GI50,OVCAR-8,7.5 µM (inactive)
same,GI50,LXFL 529,2.11 µM (inactive)
same,GI50,IGROV-1,15.1 µM (inactive)
same,GI50,MOLT-4,3.87 µM (inactive)
same,GI50,HCT-116,10.4 µM (inactive)
same,GI50,SK-MEL-28,4.45 µM (inactive)
same,GI50,OVCAR-5,20.2 µM (inactive)
same,GI50,M14,11.6 µM (inactive)
same,GI50,DMS-273,14.7 µM (inactive)
same,GI50,SW-620,5.81 µM (inactive)
same,GI50,UACC-62,11.9 µM (inactive)
same,GI50,A498,21.2 µM (inactive)
same,GI50,HOP-62,24.4 µM (inactive)
same,GI50,KM12,16.1 µM (inactive)
same,GI50,A549,18.5 µM (inactive)
same,GI50,K562,3.67 µM (inactive)
same,GI50,U-251,17.4 µM (inactive)
same,GI50,LOX IMVI,16.5 µM (inactive)
same,GI50,KM-20L2,16.1 µM (inactive)
same,GI50,OVCAR-3,16.4 µM (inactive)
same,GI50,SNB-78,6.55 µM (inactive)
same,GI50,SK-MEL-2,15.7 µM (inactive)
same,GI50,UACC-257,11.6 µM (inactive)
same,GI50,SK-OV-3,20.3 µM (inactive)
same,GI50,NCI-H23,19.6 µM (inactive)
same,GI50,ACHN,14.1 µM (inactive)
same,GI50,SNB-75,15.7 µM (inactive)
same,GI50,COLO 205,2.89 µM (inactive)
same,GI50,RXF 631,13.7 µM (inactive)
same,GI50,RXF 393,7.93 µM (inactive)
same,GI50,SR,4.31 µM (inactive)
same,GI50,TK-10,19.4 µM (inactive)
same,GI50,Malme-3M,5.92 µM (inactive)
same,GI50,NCI-H226,18.8 µM (inactive)
same,GI50,DLD-1,15.3 µM (inactive)
